The values below are quoted from earlier work in patent US10086032B2, “Method for preparing a Camellia nitidissima Chi lipid-lowering and hypoglycemic agent” (Shenzhen Violin Technology Co., Ltd., priority 2014, dated 2018).

The subject of the data set is model rat with hyperlipidemia. As to conditions: high dose group; lovastatin 0.01 g/kg; 43 days intragastric gavage.

Take `CC[C@H](C)C(=O)O[C@H]1C[C@@H](C)C=C2C=C[C@H](C)[C@H](CC[C@@H]3C[C@@H](O)CC(=O)O3)[C@H]21` [lovastatin]: the “HDL-C content of serum” value was “enhance HDL-C content of serum in model rat with hyperlipidemia”.
